In patent US4751221A, “2-fluoro-arabinofuranosyl purine nucleosides” (Sloan-Kettering Institute for Cancer Research, priority 1985, dated 1988):

Tests used:
[1] = test system: L-1210 cells; assay: Cytotoxicity against L-1210 mouse leukemia cells; format: cell-based; settings: for activity against mouse leukemic cells L-1210: in words
[2] = test system: P-813 cells; assay: Cytotoxicity against P-813 (text: P-815) mouse leukemia cells; format: cell-based; settings: for IC50: P815, mouse leukemia cells P-813, read-out: ID50 P-813; for activity against mouse leukemic cells P-815: in words
[3] = test system: NL (Namalva) cells; assay: Cytotoxicity against NL (Namalva) human tumor cells; format: cell-based; settings: for IC50: NAMALVA, human cells NL, read-out: ID50 NL; for inhibitory activity against human tumor cell line Namalva: in words
[4] = test system: CCRF-CEM cells; assay: Cytotoxicity against CCRF-CEM human tumor cells; format: cell-based; settings: for IC50: human cells CCRF-CEM, read-out: ID50 CCRFCEM; for inhibitory activity against human tumor cell line CCRF-CEM: in words
[5] = test system: Leishmania tropica promastigotes; assay: Growth inhibition of Leishmania tropica promastigotes; format: cell-based; settings: 50% growth inhibition, read-out: inhibits the growth of Leishmania tropica promastigotes by 50% at the concentration
[6] = test system: L-1210 mouse leukemic cells; settings: in tissue culture; Wilson et al., J. Med. Chem., 13, 369 (1970); cited from earlier work

| Compound | activity against mouse leukemic cells L-1210 [1] | IC50 [2] | activity against mouse leukemic cells P-815 [2] | IC50 [3] | inhibitory activity against human tumor cell line Namalva [3] | IC50 [4] | inhibitory activity against human tumor cell line CCRF-CEM [4] | IC50 ([1]; L1210, mouse leukemia cells L-1210, read-out: ID50 L-1210) | cytotoxicity against L-1210 cells ([1]; at the concentration of 100 μM) | IC50 [5] | growth-inhibitory effect against L-1210 mouse leukemic cells [6] |
| --- | --- | --- | --- | --- | --- | --- | --- | --- | --- | --- | --- |
| Nc1nc2c(ncn2[C@@H]2O[C@H](CO)[C@@H](O)[C@@H]2F)c(=O)[nH]1 [9-(2'-deoxy-2'-fluoro-β-D-arabinofuranosyl)-guanine] | modest | 5.4 µM | modest | 700 nM | potent inhibitory activity | < 100 nM | potent inhibitory activity |  |  |  |  |
| Nc1ncnc2c1ncn2[C@@H]1O[C@H](CO)[C@@H](O)[C@@H]1F [X = NH2, Y = H, 9-(2'-deoxy-2'-fluoro-β-D-arabinofuranosyl)adenine] |  | > 30 µM |  | 3000 nM |  | 670 nM |  |  |  |  |  |
| Nc1nc(S)c2ncn([C@@H]3O[C@H](CO)[C@@H](O)[C@@H]3F)c2n1 [9-(2'-deoxy-2'-fluoro-β-D-arabinofuranosyl)-2-amino-6-thiopurine] | modest | 4.6 µM | modest | 1200 nM | potent inhibitory activity | 100 nM | potent inhibitory activity |  |  |  |  |
| O=c1[nH]cnc2c1ncn2[C@@H]1O[C@H](CO)[C@@H](O)[C@@H]1F [9-(2'-deoxy-2'-fluoro-β-D-arabinofuranosyl)hypoxanthin] |  | > 30 µM |  | ~30000 nM |  | 15100 nM |  | > 30 µM | does not exhibit any cytotoxicity | 600 nM |  |
| OC[C@H]1O[C@@H](n2cnc3c(S)ncnc32)[C@@H](F)[C@@H]1O [X = SH, Y = H, 9-(2'-deoxy-2'-fluoro-β-D-arabinofuranosyl)-6-thiopurine] |  | 10 µM |  | 2000 nM |  | 10000 nM |  |  |  |  |  |
| Nc1ccn([C@@H]2O[C@H](CO)[C@@H](O)[C@@H]2F)c(=O)n1 [FAC, 1-(2'-deoxy-2'-fluoro-β-D-arabinofuranosyl)cytosine] |  |  |  |  |  |  |  |  |  |  | comparable with that of 1-(β-D-arabinofuranosyl)cytosine (ara-C) and 1-(β-D-arabinofuranosyl)-5-fluorocytosine (ara-FC) |
